Measured values from patent US20200247808A1, “Heterocyclic Tec-Family Kinase Inhibitors” (GB005, Inc., priority 2015, published 2020).
Entries after “also recorded” stand apart in the source; their conditions may differ.

Experiments:
human ErbB2 = molecular target: T1, human ErbB2 (Homo sapiens, UniProt P04626); assay: ErbB2 kinase inhibition, KinaseProfiler radiometric protein kinase assay (Eurofins); format: biochemical; conditions: 40 min room temperature
T1 construct: purchased Eurofins Pharma Discovery Services UK Limited (contract assay, KinaseProfiler)
T1 sequence (P04626 23-1255): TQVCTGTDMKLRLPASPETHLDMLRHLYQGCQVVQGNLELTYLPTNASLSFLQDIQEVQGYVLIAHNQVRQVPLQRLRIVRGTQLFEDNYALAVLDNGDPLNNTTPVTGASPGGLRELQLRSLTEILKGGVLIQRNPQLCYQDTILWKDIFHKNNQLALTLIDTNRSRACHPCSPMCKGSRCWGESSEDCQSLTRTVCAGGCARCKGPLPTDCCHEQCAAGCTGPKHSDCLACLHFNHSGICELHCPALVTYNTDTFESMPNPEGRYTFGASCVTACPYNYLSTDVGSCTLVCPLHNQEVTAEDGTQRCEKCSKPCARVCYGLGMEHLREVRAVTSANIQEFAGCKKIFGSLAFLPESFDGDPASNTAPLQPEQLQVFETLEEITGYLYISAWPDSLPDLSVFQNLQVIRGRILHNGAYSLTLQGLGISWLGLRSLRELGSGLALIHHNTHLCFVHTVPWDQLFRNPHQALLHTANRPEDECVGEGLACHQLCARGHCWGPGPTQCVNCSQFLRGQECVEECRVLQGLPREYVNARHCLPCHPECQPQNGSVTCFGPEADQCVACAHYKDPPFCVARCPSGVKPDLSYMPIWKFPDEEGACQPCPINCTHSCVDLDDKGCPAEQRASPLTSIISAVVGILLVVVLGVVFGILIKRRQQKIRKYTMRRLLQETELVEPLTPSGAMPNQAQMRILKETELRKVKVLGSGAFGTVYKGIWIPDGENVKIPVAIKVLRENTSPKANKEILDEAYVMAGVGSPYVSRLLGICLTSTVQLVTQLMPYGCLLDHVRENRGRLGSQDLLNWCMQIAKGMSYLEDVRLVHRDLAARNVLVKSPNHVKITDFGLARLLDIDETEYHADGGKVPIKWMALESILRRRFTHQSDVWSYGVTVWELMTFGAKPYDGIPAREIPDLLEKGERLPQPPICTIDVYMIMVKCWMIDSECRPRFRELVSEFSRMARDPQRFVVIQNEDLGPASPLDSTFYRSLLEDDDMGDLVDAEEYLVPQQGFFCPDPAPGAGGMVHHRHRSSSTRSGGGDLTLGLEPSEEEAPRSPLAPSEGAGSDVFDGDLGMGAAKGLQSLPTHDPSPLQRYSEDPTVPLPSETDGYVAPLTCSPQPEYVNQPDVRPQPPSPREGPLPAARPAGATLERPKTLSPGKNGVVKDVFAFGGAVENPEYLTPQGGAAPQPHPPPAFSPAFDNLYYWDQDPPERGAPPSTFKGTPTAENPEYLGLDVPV
Experimental: In vitro potency of selected compound was defined against human BTK, EGFR, and ErbB2 kinases using Kinase Profiler radiometric protein kinase assays performed at Eurofins Pharma Discovery Services UK Limited.
Each kinase is diluted in buffer and all compounds were prepared to 50x final assay concentration in 100% DMSO. This working stock of the compound was added to the assay well as the first component in the reaction, followed by the remaining components as detailed in the assay protocol listed above. The reaction was initiated by the addition of the MgATP mix. […] (specific activity approx. 500 cpm/pmol, concentration as required) and variable test article concentrations. […] The reaction was stopped by the addition of 3% phosphoric acid solution. 10 μL of the reaction is then spotted onto a P30 filtermat and washed three times for 5 minutes in 75 mM phosphoric acid and once in methanol prior to drying and scintillation counting. […] This abolishes kinase activity and establishes the base-line (0% kinase activity remaining). The potency of each compound was reported by estimating the EC50.

[1] = system: TMD-8 human activated B cell diffuse large B cell lymphoma cells; assay: TMD-8 survival assay (Cell Titer-Glo); format: cell-based; conditions: TMD8, TMD-8 cells, 72 h
Experimental: TMD-8 human activated B cell diffuse large B cell lymphoma cells were seeded in 96-well plates at a density of 20,000 cells/well in HyClone RPMI supplemented with 10% FBS (Fisher)/1% Penicillin/Streptomycin (HyClone) and incubated at 37° C., 5% CO2. Cells were treated in triplicate with 1,000 nM or 100 nM curves of compounds for 72h. Cell survival was measured by Cell Titer-Glo Luminescent Assay (Promega). EC50 values (50% proliferation in the presence of compound as compared to vehicle treated controls) were calculated from dose response compound curves using GraphPad Prism Software.

[2] = system: immune complex mediated vasculitis; assay: Mouse Arthus (immune complex mediated acute vasculitis); format: in vivo, mouse (Balb/c); conditions: mice; for Suppression of immune complex mediated vasculitis: oral gavage 10 mg/kg, 1 h pre-treatment, Evan's blue extravasation at 4 h
Experimental: Formation and reaction to immune complexes is characteristic of antibody mediated autoimmune and inflammatory disease. BTK is important in signaling pathways downstream of Fc receptor stimulation which can be modeled by immune complex mediated acute vasculitis. Mouse studies were conducted as reported in Braselmann S, et al. J Pharmacol Exp Ther, 2006, 319:998-1008.
In summary, female Balb/c mice (6-7 weeks on arrival) were habituated to the animal facility for at least 4 days. On the day of the experiment, animals were pre-treated (t=minus 1 h) with compound or vehicle alone by gavage (PO). At t=0, animals were injected intravenously (IV; 0.1 mL/mouse) with saline containing chicken ovalbumin and Evan's blue (10 mg/mL of each). Ten minutes later (t=10 min), animals were anesthesized with isoflurane, the dorsal surface was shaved and rabbit anti-chicken ovalbumin antibody was then injected intradermally at one site on the right side of the animal (25 μg in 30 μL). The same amount of isotype control antibody was then injected on the left side.
The animals were then returned to their home cage and skin punches (8 mm) were collected from each injection site four hours later. The samples were placed in 1 mL formamide overnight at 80° C. (1 skin biopsy per 1 mL formamide in a glass tube). The amount of Evan's blue in the formamide solution was then assessed by spectrophotometry (630 nm) as a measure of serum extravasation into the dermis.

[3] = system: collagen-induced arthritis; assay: Mouse CIA (collagen-induced arthritis) model; format: in vivo, mouse (B10RIII); conditions: mice, oral gavage 10 and 30 mg/kg, BID, to RA day 12
Experimental: Mouse CIA model was performed using the methods described by Trentham D E, Townes A S, Kang A H. Autoimmunity to Type II Collagen: An Experimental Model of Arthritis. J Exp Med 1977; 857-868, and Bendele A M. Animal Models of Rheumatoid Arthritis. J Musculoskel Interact 2001; 377-385.
[…]. On experimental day 0 mice were anaesthetized with isoflurane and the dorsal surface was shaved. Collagen, emulsified in Freund's complete adjuvant (CFA) supplemented with additional mycobacterium tuberculosis (TB) H37Ra, was injected intradermally at the base of the tail (0.15 mL / animal; 2 mg/mL collagen and 2.5 mg/mL TB in CFA). This CFA treatment was repeated on day 15.
From day 15 to the end of the study animals were scored daily for signs of arthritis. On the first day of disease (RA Day 1) animals were recruited to the study and grouped using a balanced design based on arthritis score. Once recruited, animals were weighed and dosed twice daily by gavage (PO, BID). Recruited animals were then scored twice a week on RA days 1, 5, 8 and 12.
At the end of the study (RA day 12) animals were weighed and scored.

[4] = system: TMD-8 xenograft B-cell lymphoma; assay: Antitumor activity study, TMD-8 xenograft; format: in vivo, mouse (Scid); conditions: Scid mice, once daily oral gavage from d21
Experimental: Female C.B-17/IcrHsd-PrkdcsidLystbg-J mice (Scid mice; Harlan, 6-8 wk on delivery) were used for these studies. The mice were housed 4 per cage in a ventilated rack in a room under controlled conditions of temperature (20-25° C.) and humidity (40-70%), with a 12 h dark/light cycle. The animals were fed ad libitum with irradiated rodent diet (Harlan) and received autoclaved tap water. The cage, bedding and enrichment materials inside the home cage were autoclaved prior to use and all cage and animal manipulations were carried out inside a sterile laminar flow hood. Animals were acclimated for 1 week prior to cell injection.
TMD-8 human activated B cell diffuse large B cell lymphoma cells were grown in HyClone RPMI supplemented with 10% FBS (Fisher)/1% Penicillin/Streptomycin (HyClone) at 37° C., 5% CO2 and then prepared for injection. […]
When the mean tumor volume reached 200-300 mm^3 (d21) mice were randomized into groups of 10 based on tumor size and treatment was initiated. […] General condition and BW of all mice was assessed daily and tumor measurements collected twice per week (Mon and Thur). […]
The long (a) and short (b) axis of tumors were measured with electronic calipers (Mitutoyo) and tumor volume (mm^3) was calculated (a*b^2/2) and temporal changes in tumor volume and body weight were assessed day 21 (d21) to […].

in vitro = conditions: human, liver microsomes
Experimental: Intrinsic liver microsomal stability was determined using cryopreserved human liver microsomes. […] Following centrifugation 100 μL of the supernatant was transferred to a 96-well plate and analyzed by LC-MS/MS using test-article specific methods. Controls included absence of microsomes or co-factors or use of heat-denatured microsomes. Intrinsic clearance was calculated using the formula: (In(% Time 0/% Time 1)/T1−T0)×Volume of incubation/protein in the incubation.

EGFR = EGFR (Homo sapiens, UniProt P00533); assay: Inhibition of cellular EGFR (EGF-stimulated EGFR autophosphorylation in MDA-468 cells); format: cell-based; design: MDA-468 human breast tumor cells which express functional EGFR; endogenous in cells; host or cells: MDA-468 human breast tumor cells; conditions: 1 h pretreatment, 10 ng/mL EGF 5 min, phospho-EGFR/EGFR ratio
Chain of EGFR (P00533 25-1210): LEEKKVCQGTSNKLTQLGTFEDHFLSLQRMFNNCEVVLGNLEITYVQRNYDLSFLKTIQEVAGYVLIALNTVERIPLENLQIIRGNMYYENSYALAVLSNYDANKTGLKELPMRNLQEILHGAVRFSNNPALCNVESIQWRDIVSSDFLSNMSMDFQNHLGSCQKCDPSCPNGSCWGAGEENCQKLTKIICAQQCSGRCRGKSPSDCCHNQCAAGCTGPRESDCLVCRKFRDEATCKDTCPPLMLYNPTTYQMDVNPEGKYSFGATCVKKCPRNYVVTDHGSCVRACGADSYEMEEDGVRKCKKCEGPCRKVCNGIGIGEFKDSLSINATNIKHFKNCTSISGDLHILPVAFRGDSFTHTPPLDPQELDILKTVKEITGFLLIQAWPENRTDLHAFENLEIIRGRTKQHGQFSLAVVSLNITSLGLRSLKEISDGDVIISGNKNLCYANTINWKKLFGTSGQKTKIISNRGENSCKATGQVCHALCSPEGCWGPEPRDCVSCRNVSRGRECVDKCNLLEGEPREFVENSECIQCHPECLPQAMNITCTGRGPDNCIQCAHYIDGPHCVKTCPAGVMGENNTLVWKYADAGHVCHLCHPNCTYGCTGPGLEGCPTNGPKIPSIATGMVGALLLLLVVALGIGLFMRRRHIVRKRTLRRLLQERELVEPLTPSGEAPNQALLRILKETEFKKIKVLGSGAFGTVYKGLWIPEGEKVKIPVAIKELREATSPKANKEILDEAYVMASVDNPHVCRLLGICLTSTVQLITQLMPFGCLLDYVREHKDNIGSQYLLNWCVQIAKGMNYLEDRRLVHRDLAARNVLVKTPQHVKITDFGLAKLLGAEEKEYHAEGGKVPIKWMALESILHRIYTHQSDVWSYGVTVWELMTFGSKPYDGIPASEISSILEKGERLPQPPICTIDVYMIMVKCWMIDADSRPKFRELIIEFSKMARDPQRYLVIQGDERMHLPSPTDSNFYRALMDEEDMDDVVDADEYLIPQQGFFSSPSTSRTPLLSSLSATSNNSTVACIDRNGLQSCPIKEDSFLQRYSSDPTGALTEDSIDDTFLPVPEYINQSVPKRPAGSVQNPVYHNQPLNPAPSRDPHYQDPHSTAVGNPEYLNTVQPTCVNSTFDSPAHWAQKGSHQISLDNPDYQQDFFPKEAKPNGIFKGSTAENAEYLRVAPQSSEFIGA
Experimental: Cells were plated at a densitity of 400 000 cells/well in 6×12-well plates in a final volume of 1 ml/well in DMEM high glucose+10% FBS +1% Pen/Strep and cultured at 37 C and 5% CO2 overnight. The following day the media was replaced with serum free media and the cells were cultured for a further 24 hours.
Cells were pretreated with compound for 1 hour and then stimulated with 10 ng/mL EGF for 5 minutes. Media was removed and cells were lysed in 100 uL/well of RIPA buffer+1% Protease Inhibitor cocktail+1% Phosphatase inhibitor cocktail. Protein concentrations were determined by
BCA assay. 25μ of cellular protein from each cell treatment was separated by SDS-PAGE. Proteins were transferred to nitrocellulose membranes and blocked with TBS-T+5% non-fat milk. EGFR and phospho-EGFR were detected following incubation overnight at 4° C. with Rabbit anti-phospho-EGFR (Tyr1068) (Cell signaling) diluted 1/1000 and Mouse anti-EGFR (1F4) (Cell signaling) diluted 1/1000 in TBS-T+5% nonfat dry milk and then incubation for 1 h at RT with IR Dye 800CW goat anti-rabbit diluted 1/15000 and with IR Dye 680RD goat anti-mouse diluted 1/15000 in TBS-T+5% nonfat dry milk+0.01% SDS. Antibody binding was quatified using a Li-cor Odyssey CLx. Phospho-EGFR/EGFR ratios were calculated for each test condition of control and test article and the EC50 of inhibiton of EGF-stimulated EGFR phosphorylation was calculated.

Row | IC50 (human ErbB2) | microsomal CLint at 1 μM (in vitro) | EC50 (EGFR) | Structure (SMILES) | EC50 [1] | Effect on immune complex-mediated vasculitis (FIG. 3, in words) [2] | Suppression of immune complex mediated vasculitis [2] | Effect on arthritis in mouse CIA model [3] | Effect on TMD-8 xenograft tumor growth [4]
1 | > 1 µM | 34.9 µL/min/mg | 5.96 µM | CC#CC(=O)N[C@H]1C[C@@H](n2nc(-c3ccc(Oc4ccccc4)cc3)c3c(N)ncnc32)C1 [Compound 1] | 0.001 µM | inhibit immune complex-mediated vasculitis | 87% | prevented the progression of arthritis; also recorded: effective in the mouse collagen-induced arthritis model | reduce growth of TMD-8 xenograft B-cell lymphoma; also recorded: reduce tumor growth
2 | 0.097 µM | 15.6 µL/min/mg | 0.376 µM | C=CC(=O)N[C@H]1C[C@@H](n2nc(-c3ccc(Oc4ccccc4)cc3)c3c(N)ncnc32)C1 [Compound 2] | 0.0019 µM | inhibit immune complex-mediated vasculitis | 94% | prevented the progression of arthritis; also recorded: effective in the mouse collagen-induced arthritis model | reduce growth of TMD-8 xenograft B-cell lymphoma; also recorded: reduce tumor growth
